Results on ten compounds are retold here after patent US20220298146A1, “HETEROCYCLIC DERIVATIVE AND USE THEREOF” (Transthera Sciences (Nanjing), Inc., priority 2019, published 2022).

One assay has as its target T1, H1299 cell pAxl (Homo sapiens, UniProt P30530).
T1 construct: endogenous in cells; host or cells: H1299
T1 sequence (P30530 26-894): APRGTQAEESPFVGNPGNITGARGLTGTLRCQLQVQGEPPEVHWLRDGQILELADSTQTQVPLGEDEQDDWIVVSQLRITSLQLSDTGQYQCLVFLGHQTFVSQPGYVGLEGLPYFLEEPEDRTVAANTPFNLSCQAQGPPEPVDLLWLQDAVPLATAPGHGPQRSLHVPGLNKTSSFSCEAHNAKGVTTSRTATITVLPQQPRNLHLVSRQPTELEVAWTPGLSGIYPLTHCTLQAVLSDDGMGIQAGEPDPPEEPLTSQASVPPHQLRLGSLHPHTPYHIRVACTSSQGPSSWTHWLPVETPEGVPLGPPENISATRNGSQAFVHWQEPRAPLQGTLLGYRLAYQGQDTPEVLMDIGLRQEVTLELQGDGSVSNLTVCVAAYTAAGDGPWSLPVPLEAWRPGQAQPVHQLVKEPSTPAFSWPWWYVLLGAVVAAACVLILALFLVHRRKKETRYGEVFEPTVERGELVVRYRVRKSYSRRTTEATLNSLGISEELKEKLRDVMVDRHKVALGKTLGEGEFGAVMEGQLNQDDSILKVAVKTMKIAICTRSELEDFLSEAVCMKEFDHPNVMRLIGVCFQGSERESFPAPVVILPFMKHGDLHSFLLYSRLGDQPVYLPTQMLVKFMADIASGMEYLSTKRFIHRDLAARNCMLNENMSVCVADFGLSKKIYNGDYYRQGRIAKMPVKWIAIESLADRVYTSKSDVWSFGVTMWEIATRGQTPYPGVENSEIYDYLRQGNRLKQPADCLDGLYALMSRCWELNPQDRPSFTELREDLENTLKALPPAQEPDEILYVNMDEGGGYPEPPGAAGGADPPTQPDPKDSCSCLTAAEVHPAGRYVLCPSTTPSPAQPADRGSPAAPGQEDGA
Description: Inhibitory activity on cell pAxl (H1299 cells, hGAS6 stimulation, Western Blot). Type of assay: cell-based. As to conditions: hGAS6 200 ng/mL, tested at 1.1, 3.3, 10 and 30 nM, read-out: Inhibitory Activity on Cell pAx1, IC50. As for the experimental part: H1299 is a non-small cell lung cancer cell.
Test samples: the compounds of the present invention, having structures shown above.
Test instruments: protein electrophoresis apparatus (made by Bio Rad), membrane transfer apparatus (made by Bio Rad), exposure apparatus (made by Tanon), and CO2 cell incubator (made by Thermo).
H1299 cells were inoculated into a 6-well plate (containing 10% FBS 1640 medium, 5×10^5 cells per well) and adherently cultivated at 37° C. and 5% CO2 for 18 h. The cells were starved overnight, and compounds with different concentrations were added. The compounds had final concentrations of 1.1 nM, 3.3 nM, 10 nM and 30 nM, with DMSO having a final concentration of 1‰. There was a medium containing 10‰ DMSO in the negative control well. The cells were incubated at 37° C. and 5% CO2 for 60 min, and then hGAS6 (R&D, final concentration: 200 ng/mL) was added to each well. The cells were further incubated for 60 min, and then the total protein of the cells was extracted for Western Blot experiment. IC50 values were calculated with GraphPad 5.0 software, and the inhibitory activities of the compounds on cell pAxl were detected.

The target in a further assay is T2, Tyro-3 (h) (Homo sapiens, UniProt Q06418).
T2 construct: purchased
T2 sequence (Q06418 41-890): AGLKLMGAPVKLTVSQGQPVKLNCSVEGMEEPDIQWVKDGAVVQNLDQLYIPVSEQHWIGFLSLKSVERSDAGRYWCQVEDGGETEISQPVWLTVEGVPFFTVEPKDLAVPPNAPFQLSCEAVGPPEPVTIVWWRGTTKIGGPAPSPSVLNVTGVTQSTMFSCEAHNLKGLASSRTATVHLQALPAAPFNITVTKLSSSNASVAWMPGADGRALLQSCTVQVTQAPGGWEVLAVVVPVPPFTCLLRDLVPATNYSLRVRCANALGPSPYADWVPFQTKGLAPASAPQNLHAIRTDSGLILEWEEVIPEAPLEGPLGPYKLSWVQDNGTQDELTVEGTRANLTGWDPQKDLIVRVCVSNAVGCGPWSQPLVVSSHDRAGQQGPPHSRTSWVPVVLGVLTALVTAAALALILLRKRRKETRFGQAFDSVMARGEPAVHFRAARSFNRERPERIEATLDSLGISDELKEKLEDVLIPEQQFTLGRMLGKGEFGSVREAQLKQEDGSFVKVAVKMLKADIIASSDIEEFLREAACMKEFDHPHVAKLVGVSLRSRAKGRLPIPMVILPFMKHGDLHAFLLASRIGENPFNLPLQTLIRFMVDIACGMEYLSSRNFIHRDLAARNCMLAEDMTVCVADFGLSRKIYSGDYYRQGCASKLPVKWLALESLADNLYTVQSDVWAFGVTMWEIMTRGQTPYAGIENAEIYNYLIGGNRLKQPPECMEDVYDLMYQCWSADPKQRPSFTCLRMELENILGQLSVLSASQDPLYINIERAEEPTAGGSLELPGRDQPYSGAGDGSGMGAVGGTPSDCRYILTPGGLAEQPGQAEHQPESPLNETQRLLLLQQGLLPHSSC
Put plainly: Enzymatic activity assay, Tyro-3 (h) kinase, [γ-33P]-ATP. Particulars: 10 μM [γ-33P]-ATP, 40 min, room temperature; read-out: Inhibitory Activity on Tyro-3 (h), IC50. It is filed as biochemical. The procedure: Test samples: the compounds of the present invention, having structures and preparation methods shown above.
(1) Preparation of Compound Stock Solutions
Compounds were each dissolved in 100% DMSO to prepare stock solutions with a maximum concentration of 500 μM.
(2) Preparation of Compound Working Solutions
The compound stock solutions were diluted to final concentrations of 500 μM, 150 μM, 50 μM, 15 μM, 5 μM, 1.5 μM, 0.5 μM, 0.15 μM and 0.05 μM to prepare compound working solutions (50×).
(3) Preparation of different enzymatic reaction solutions
Tyro3 (h) enzyme was dissolved in a mixture of 8 mM MOPS (pH 7.0), 0.2 mM EDTA, 1 mM MnCl2 and 250 μM KVEKIGEGTYGVVYK to prepare an enzyme solution with a final concentration of 38 nM. An Mg/ATP mixture of 10 mM magnesium acetate and 10 μM [γ-^33P]-ATP was used to activate the enzymatic reaction.
The compound working solutions were added to a 384-well plate, with final concentrations of 10000 nM, 3000 nM, 1000 nM, 300 nM, 100 nM, 30 nM, 10 nM, 3 nM and 1 nM, respectively, and then different enzymatic reaction solutions prepared according to the above conditions were added. The reaction solutions were incubated at room temperature for 40 min, and then 0.5% phosphoric acid solutions were added to terminate the reaction. 10 μL of the reaction solution was added dropwise to P30 filter paper which was washed 4 times with a 0.425% phosphoric acid solution and once with methanol and then placed in a scintillation counter for detection. Gray analysis was performed on the results with Image J software, and IC50 values were calculated with GraphPad 5.0 software.

pIC50: −log10 of the molar value.

For the compound `CC(C)n1cc(-c2ccc(F)cc2)c(=O)c(C(=O)Nc2ccc(Oc3ccnc(N)c3Cl)cn2)n1` [Compound 11, N-(5-((2-amino-3-chloropyridin-4-yl)oxy)pyridin-2-yl)-5-(4-fluorophenyl)-1-isopropyl-4-oxo-1,4-dihydropyridazine-3-carboxamide], the figures for the pIC50 at H1299 cell pAxl and on Tyro-3 (h) were greater than 8.96 and 7.27, respectively.

As to `CC(C)n1cc(-c2ccc(F)cc2)c(=O)c(C(=O)Nc2ncc(Oc3ccnc(N)c3Cl)cn2)n1` [Compound 12, N-(5-((2-amino-3-chloropyridin-4-yl)oxy)pyrimidin-2-yl)-5-(4-fluorophenyl)-1-isopropyl-4-oxo-1,4-dihydropyridazine-3-carboxamide], the pIC50 at H1299 cell pAxl is 8.48; on Tyro-3 (h), 7.64.

Turning to `CC(C)n1cc(-c2ccc(F)cc2)c(=O)c(C(=O)Nc2ccc(Oc3ccnc(N)c3Cl)nc2)n1` [Compound 13, N-(6-((2-amino-3-chloropyridin-4-yl)oxy)pyridin-3-yl)-5-(4-fluorophenyl)-1-isopropyl-4-oxo-1,4-dihydropyridazine-3-carboxamide], the pIC50 is 8.48 to 8.96 at H1299 cell pAxl and 7.41 on Tyro-3 (h).

For `Nc1nccc(Oc2ccc(NC(=O)c3nn(C4CC4)cc(-c4ccc(F)cc4)c3=O)nc2)c1Cl` [Compound 17, N-(5-((2-amino-3-chloropyridin-4-yl)oxy)pyridin-2-yl)-1-cyclopropyl-5-(4-fluorophenyl)-4-oxo-1,4-dihydropyridazine-3-carboxamide], the pIC50 at H1299 cell pAxl was greater than 8.96; at Tyro-3 (h), 7.51.

As for `Nc1nccc(Oc2cnc(NC(=O)c3nn(C4CC4)cc(-c4ccc(F)cc4)c3=O)nc2)c1Cl` [Compound 18, N-(5-((2-amino-3-chloropyridin-4-yl)oxy)pyrimidin-2-yl)-5-(4-fluorophenyl)-1-cyclopropyl-4-oxo-1,4-dihydropyridazine-3-carboxamide], the pIC50 is 8.48 on H1299 cell pAxl and 7.31 on Tyro-3 (h).

With `Nc1nccc(Oc2ccc(NC(=O)c3nn(C4CC4)cc(-c4ccc(F)cc4)c3=O)cn2)c1Cl` [Compound 19, N-(6-((2-amino-3-chloropyridin-4-yl)oxy)pyridin-3-yl)-1-cyclopropyl-5-(4-fluorophenyl)-4-oxo-1,4-dihydropyridazine-3-carboxamide], the values for the pIC50 on H1299 cell pAxl and on Tyro-3 (h) were 8.00 to 8.48 and 7.14, respectively.

As for `Cn1cc(-c2ccc(F)cc2)c(=O)c(C(=O)Nc2ccc(Oc3ccnc(N)c3Cl)cn2)n1` [Compound 33, N-(5-((2-amino-3-chloropyridin-4-yl)oxy)pyridin-2-yl)-5-(4-fluorophenyl)-1-methyl-4-oxo-1,4-dihydropyridazine-3-carboxamide], the values for the pIC50 at H1299 cell pAxl and at Tyro-3 (h) were 8.00 to 8.48 and 7.64, respectively.

In the case of `C=CCn1cc(-c2ccc(F)cc2)c(=O)c(C(=O)Nc2ccc(Oc3ccnc(N)c3Cl)cn2)n1` [Compound 35, 1-allyl-N-(5-((2-amino-3-chloropyridin-4-yl)oxy)pyridin-2-yl)-5-(4-fluorophenyl)-4-oxo-1,4-dihydropyridazine-3-carboxamide], the pIC50 on H1299 cell pAxl is greater than 8.96; on Tyro-3 (h) it was 7.62.

In the case of `C=CCn1cc(-c2ccc(F)cc2)c(=O)c(C(=O)Nc2ncc(Oc3ccnc(N)c3Cl)cn2)n1` [Compound 37], the pIC50 is 8.96 on H1299 cell pAxl and 7.66 on Tyro-3 (h).

Consider `C=CCn1cc(-c2ccc(F)cc2)c(=O)c(C(=O)Nc2ccc(Oc3ccnc(N)c3Cl)nc2)n1` [Compound 39, 1-allyl-N-(6-((2-amino-3-chloropyridin-4-yl)oxy)pyridin-3-yl)-5-(4-fluorophenyl)-4-oxo-1,4-dihydropyridazine-3-carboxamide], for which the pIC50 is 8.48 to 8.96 on H1299 cell pAxl and 7.55 at Tyro-3 (h).

By pIC50 is commonly meant −log10 of the IC50, conventionally taken in molar units.
